Measurements: patent US20230183239A1, “ECTONUCLEOTIDE PYROPHOSPHATASE-PHOSPHODIESTERASE 1 (ENPP-1) INHIBITORS AND USES THEREOF” (AbbVie Inc., priority 2017, published 2023)

How the values were obtained:
Type in all cases: biochemical
[1] = target: T1, ENPP1 (Homo sapiens, UniProt P22413); assay: ENPP1 enzyme assay with AMP-pNP substrate (hydrolysis of ATP analog); details: AMP-pNP substrate (ATP analog); Ki from IC50 by Cheng-Prusoff; read-out: ENPP1 Inhibition _AMP-pNP: Ki
T1 sequence (P22413 1-925): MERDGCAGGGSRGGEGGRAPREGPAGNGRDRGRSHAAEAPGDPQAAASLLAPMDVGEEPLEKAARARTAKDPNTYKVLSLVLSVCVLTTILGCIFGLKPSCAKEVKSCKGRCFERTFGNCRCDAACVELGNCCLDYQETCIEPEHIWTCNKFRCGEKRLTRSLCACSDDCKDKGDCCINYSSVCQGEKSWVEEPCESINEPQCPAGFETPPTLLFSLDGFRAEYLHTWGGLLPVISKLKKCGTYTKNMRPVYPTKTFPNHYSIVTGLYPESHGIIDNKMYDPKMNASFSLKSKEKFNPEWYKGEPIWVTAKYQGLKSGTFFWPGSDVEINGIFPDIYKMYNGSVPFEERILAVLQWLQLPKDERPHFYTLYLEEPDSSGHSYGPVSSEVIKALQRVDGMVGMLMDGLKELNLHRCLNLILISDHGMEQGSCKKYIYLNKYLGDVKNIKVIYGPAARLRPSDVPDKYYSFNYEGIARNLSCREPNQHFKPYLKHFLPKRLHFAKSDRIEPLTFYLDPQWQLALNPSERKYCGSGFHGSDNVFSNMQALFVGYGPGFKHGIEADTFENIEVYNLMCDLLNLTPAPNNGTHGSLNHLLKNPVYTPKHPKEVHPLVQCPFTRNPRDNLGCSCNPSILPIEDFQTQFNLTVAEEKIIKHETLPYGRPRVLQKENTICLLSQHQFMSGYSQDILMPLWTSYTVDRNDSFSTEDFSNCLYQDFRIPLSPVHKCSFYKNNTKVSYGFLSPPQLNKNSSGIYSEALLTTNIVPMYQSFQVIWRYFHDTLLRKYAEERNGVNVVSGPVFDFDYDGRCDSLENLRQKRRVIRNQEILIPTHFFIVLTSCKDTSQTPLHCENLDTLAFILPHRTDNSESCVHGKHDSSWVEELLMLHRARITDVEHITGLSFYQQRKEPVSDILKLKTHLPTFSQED
Experimental: The ENPP1 assay with AMP-pNP substrate is conducted in a buffer containing 50 mM Tris-HCl (pH 8.5)/ 250 mM NaCl/0.5 mM CaCl2/1 µM ZnCl2/0.1% DMSO. Inhibitors are added at final concentrations ranging between 10 µM and 30 pM depending on the compound. Duplicate wells are run at each inhibitor concentration. The final assay volume is 40 µL and human recombinant ENPP1 is present at 60 ng/well. The assay is initiated by the addition of substrate (300 µM AMP-pNP final concentration), and incubated for 20 minutes at 37° C. […] Each assay plate also includes wells with no enzyme added (MIN OD) and wells with no inhibitor added (MAX OD). The percent inhibition of ENPP1 for each sample is then calculated as: […]
IC50 values of compounds were calculated by entering the percent inhibition values into a sigmoidal variable slope nonlinear regression model in GraphPad Prism® software.

[2] = target: T1, ENPP1; assay: Substrate selectivity ratio, inhibition of cGAMP hydrolysis versus ATP hydrolysis; details: ratio Ki AMP-pNP / Ki cGAMP
Experimental: The selectivity ratios for inhibition of cGAMP hydrolysis versus ATP hydrolysis were then calculated as follows: […]

[3] = target: T1, ENPP1; assay: Indirect quantitation of 2',3'-cGAMP hydrolysis (AMP-Glo Assay kit); details: cGAMP substrate; Ki from IC50 by Cheng-Prusoff; read-out: ENPP1 Inhibition -cGAMP: Ki

SMILES | Ki [1] [nM] | Substrate Selectivity: Ki_AMP-pNP/Ki_cGAMP [2] | Ki [3] [nM]
COc1ccc2c(-c3ccc4c(c3)CN(S(N)(=O)=O)CC4)ccnc2n1 [Example 365, 7-(7-methoxy-1,8-naphthyridin-4-yl)-3,4-dihydroisoquinoline-2(1H)-sulfonamide] | 100 to 1000 | 18 | < 100
COc1cc2ncnc(Nc3ccc(NS(N)(=O)=O)cc3)c2cc1OC [Example 114, N-(4-((6,7-dimethoxyquinazolin-4-yl)amino)phenyl)sulfamide] | > 1000 | >42.7 | < 100
COc1ccc2ncnc(N3CCC4(CC3)CCN(S(N)(=O)=O)C4)c2c1 [Example 70, 8-(6-methoxyquinazolin-4-yl)-2,8-diazaspiro [4.5] decane-2-sulfonamide] | < 100 | 15.5 | < 100
COc1cc2nccc(Oc3ccc4c(c3)CNS(=O)(=O)N4)c2cc1OC [Example 263, 6-((6,7-dimethoxyquinolin-4-yl)oxy)-3,4-dihydro-1H-benzo[c][1,2,6]thiadiazine 2,2-dioxide] | > 1000 | >61.9 | 100 to 1000
COc1cc2nccc(Oc3ccc(NS(N)(=O)=O)cc3)c2cc1OC [Example 125, N-(4-((6,7-dimethoxyquinolin-4-yl)oxy)phenyl)sulfamide] | > 1000 | >562 | < 100
COc1cc2nccc(Oc3ccc(N(O)C=O)cc3)c2cc1OC [Example 292, N-(4-((6,7-dimethoxyquinolin-4-yl)oxy)phenyl)-N-hydroxyformamide] | > 1000 | >31.1 | < 100
COc1ccc2c(N3CCC4(CC3)CCN(S(N)(=O)=O)C4)ncnc2c1 [Example 65, 8-(7-methoxyquinazolin-4-yl)-2,8-diazaspiro [4.5] decane-2-sulfonamide] | < 100 | 38.7 | < 100
COc1cc2c(NCc3ccc(S(N)(=O)=O)cc3)ncnc2cn1 [Example 247, 4-(((6-methoxypyrido[3,4-d]pyrimidin-4-yl)amino)methyl)benzenesulfonamide] | > 1000 | 67.3 | 100 to 1000
COc1ccc2c(NC(C)c3ccc(NS(N)(=O)=O)cc3)ncnc2c1 (stereo not drawn) [Example 279, N-(4-(1-((7-methoxyquinazolin-4-yl)amino)ethyl)phenyl)sulfamide] | 100 to 1000 | 24.2 | < 100
COc1cc2ncc(C#N)c(-c3ccc(CNS(N)(=O)=O)cc3)c2cc1OC [Example 241, N-(4-(3-cyano-6,7-dimethoxyquinolin-4-yl)benzyl)sulfamide] | 100 to 1000 | 49.0 | < 100
COc1cc2ncnc(N3CCC(CCC(=O)NO)CC3)c2cc1OC [Example 159, 3-(1-(6,7-dimethoxyquinazolin-4-yl)piperidin-4-yl)-N-hydroxypropanamide] | < 100 | 54.8 | < 100
COc1ccc2ncc(C#N)c(-c3ccc(CNS(N)(=O)=O)cc3)c2c1 [Example 240, N-(4-(3-cyano-6-methoxyquinolin-4-yl)benzyl)sulfamide] | > 1000 | >81.3 | < 100
COc1ccc2c(-c3ccc(CS(N)(=O)=O)cc3)ccnc2c1 [Example 406, (4-(7-methoxy quinolin-4-yl)phenyl)methane sulfonamide] | > 1000 | >65 | 100 to 1000
COc1ccc2c(-c3ccc(CNS(N)(=O)=O)cc3)ncnc2c1 [Example 226, N-(4-(7-methoxyquinazolin-4-yl)benzyl)sulfamide] | 100 to 1000 | 29.5 | < 100
